Assay results: PMC5372988, “Bulgecin A: The Key to a Broad-Spectrum Inhibitor That Targets Lytic Transglycosylases” (Antibiotics, 2017)

Target: T1, LtgA (Neisseria meningitidis, UniProt Q9JXP1)
T1 construct: gene NMB1949; GST fusion from pGEX-4T1, GST cut by thrombin; E. coli BL21(DE3) Gold; 577 residues in model
T1 sequence (Q9JXP1 26-616): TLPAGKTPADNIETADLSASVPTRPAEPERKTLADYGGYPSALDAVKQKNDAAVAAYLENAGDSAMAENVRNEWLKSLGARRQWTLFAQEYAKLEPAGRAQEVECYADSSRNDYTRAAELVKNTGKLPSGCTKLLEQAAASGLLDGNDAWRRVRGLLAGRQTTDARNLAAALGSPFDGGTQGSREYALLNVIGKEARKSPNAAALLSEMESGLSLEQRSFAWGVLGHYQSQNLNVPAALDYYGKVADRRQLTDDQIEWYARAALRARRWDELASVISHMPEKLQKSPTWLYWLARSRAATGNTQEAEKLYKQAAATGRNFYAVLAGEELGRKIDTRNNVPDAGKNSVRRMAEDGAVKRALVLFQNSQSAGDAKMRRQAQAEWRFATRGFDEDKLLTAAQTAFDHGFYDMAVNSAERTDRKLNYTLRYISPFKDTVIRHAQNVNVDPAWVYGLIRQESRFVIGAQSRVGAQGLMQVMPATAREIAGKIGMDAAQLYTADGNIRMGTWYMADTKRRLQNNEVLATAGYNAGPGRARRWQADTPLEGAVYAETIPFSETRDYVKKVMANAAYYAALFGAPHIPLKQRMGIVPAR
Assay: RP-HPLC of muropeptides released from N. meningitidis peptidoglycan
Format: biochemical

CC(=O)N[C@H]1[C@H](O[C@H]2C[C@@H](C(=O)NCCS(=O)(=O)O)N[C@@H]2CO)O[C@H](CO)[C@@H](OS(=O)(=O)O)[C@@H]1O [bulgecin A]
inhibition at 90 µM: 66 ± 9.4%
